Test results taken from US11439707B2, “Hypocrellin derivative substituted both in a peri-position and in 2-position by amino, preparation method, and application thereof” (priority 2017, dated 2022).

Columns and labels:
[1] = absorption spectrum (maximum absorption wavelength, molar extinction coefficient); format: physicochemical
[2] = singlet oxygen efficiency test, reference rose bengal; format: physicochemical

With `COc1c2c3c4c(c(NCCOCCO)c(=O)c5c(O)cc(OC)c(c6c(OC)cc(NCCOCCO)c(c1=O)c63)c54)C=C(C)C2` [HC-1d] the maximum absorption wavelength [1] was 626 nm, the molar extinction coefficient [1] was 28,500 M^−1cm^−1 and the singlet oxygen yield [2] was 32%.
With `COCCOCCC(=O)OCCNc1c(NCCOC(=O)CCOCCOC)c2c(=O)cc(OC)c3c4c(OC)cc(=O)c5c(O)c(OC)c6c(c(c1C=C(C)C6)c23)c54` [HC-2a-PEG1] the maximum absorption wavelength [1] was 622 nm, the molar extinction coefficient [1] was 30,000 M^−1cm^−1 and the singlet oxygen yield [2] was 30%.
In the case of `COc1c(O)c2c(=O)cc(OC)c3c4c(OC)cc(=O)c5c(NCCO)c(NCCO)c6c(c(c1CC(C)=C6)c23)c54` [HC-2a], the maximum absorption wavelength [1] is reported as 627 nm, the molar extinction coefficient [1] is reported as 28.500 M⁻¹ cm⁻¹ and the singlet oxygen yield [2] is reported as 32%.
For `COc1c(NCCO)c2c(=O)cc(OC)c3c4c(OC)cc(=O)c5c(O)c(NCCO)c6c(c(c1CC(C)=C6)c23)c54` [HC-2b], the maximum absorption wavelength [1] was 624 nm, the molar extinction coefficient [1] was 27.500 M⁻¹ cm⁻¹ and the singlet oxygen yield [2] was 33%.
In the case of `COCCOCCOCCOCCOCCOCCOCCOCCOCCOCCOCCOCCOCCC(=O)OCCNc1c2c3c4c(c(OC)c(=O)c5c(O)cc(OC)c(c6c(OC)cc(NCCOC(=O)CCOCCOCCOCCOCCOCCOCCOCCOCCOCCOCCOCCOCCOC)c(c1=O)c63)c54)CC(C)=C2` [HC-2c-PEG12], the maximum absorption wavelength [1] is reported as 630 nm, the molar extinction coefficient [1] is reported as 32,500 M^−1cm^−1 and the singlet oxygen yield [2] is reported as 34%.
With `COc1c2c3c4c(c(NCCO)c(=O)c5c(O)cc(OC)c(c6c(OC)cc(NCCO)c(c1=O)c63)c54)C=C(C)C2` [HC-2d] the maximum absorption wavelength [1] was 625 nm, the molar extinction coefficient [1] was 28,500 M^−1cm^−1 and the singlet oxygen yield [2] was 34%.
With `COc1c(O)c2c(=O)cc(OC)c3c4c(OC)cc(=O)c5c(NCC(=O)O)c(NCC(=O)O)c6c(c(c1CC(C)=C6)c23)c54` [HC-7a] the maximum absorption wavelength [1] was 620 nm, the molar extinction coefficient [1] was 27,500 M^−1cm^−1 and the singlet oxygen yield [2] was 28%.
In the case of `COc1c(NCC(=O)O)c2c(=O)cc(OC)c3c4c(OC)cc(=O)c5c(O)c(NCC(=O)O)c6c(c(c1CC(C)=C6)c23)c54` [HC-7b], the maximum absorption wavelength [1] is reported as 622 nm, the molar extinction coefficient [1] is reported as 28,500 M^−1cm^−1 and the singlet oxygen yield [2] is reported as 25%.
For `COc1c2c3c4c(c(NCC(=O)O)c(=O)c5c(NCC(=O)O)cc(OC)c(c6c(OC)cc(O)c(c1=O)c63)c54)C=C(C)C2` [HC-7c], the maximum absorption wavelength [1] was 630 nm, the molar extinction coefficient [1] was 29,500 M^−1cm^−1 and the singlet oxygen yield [2] was 27%.
For `COc1c2c3c4c(c(NCC(=O)O)c(=O)c5c(O)cc(OC)c(c6c(OC)cc(NCC(=O)O)c(c1=O)c63)c54)C=C(C)C2` [HC-7d], the maximum absorption wavelength [1] was 626 nm, the molar extinction coefficient [1] was 26,000 M^−1cm^−1 and the singlet oxygen yield [2] was 25%.
With `COCCOCCNC(=O)CCCNc1c(NCCCC(=O)NCCOCCOC)c2c(=O)cc(OC)c3c4c(OC)cc(=O)c5c(O)c(OC)c6c(c(c1C=C(C)C6)c23)c54` [HC-8a-NH-PEG1] the maximum absorption wavelength [1] was 621 nm, the molar extinction coefficient [1] was 30,500 M^−1cm^−1 and the singlet oxygen yield [2] was 30%.
With `COc1c(O)c2c(=O)cc(OC)c3c4c(OC)cc(=O)c5c(NCCCC(=O)NCC[N+](C)(C)C)c(NCCCC(=O)NCC[N+](C)(C)C)c6c(c(c1CC(C)=C6)c23)c54` [HC-8a-NH—C2-N^+] the maximum absorption wavelength [1] was 622 nm, the molar extinction coefficient [1] was 30,000 M^−1cm^−1 and the singlet oxygen yield [2] was 29%.
For `COc1c(O)c2c(=O)cc(OC)c3c4c(OC)cc(=O)c5c(NCCCC(=O)NCCS(=O)(=O)O)c(NCCCC(=O)NCCS(=O)(=O)O)c6c(c(c1CC(C)=C6)c23)c54` [HC-8a-NH—C2-SO3H], the maximum absorption wavelength [1] was 620 nm, the molar extinction coefficient [1] was 31,000 M^−1cm^−1 and the singlet oxygen yield [2] was 32%.
In the case of `COCCOC(=O)CCCNc1c(NCCCC(=O)OCCOC)c2c(=O)cc(OC)c3c4c(OC)cc(=O)c5c(O)c(OC)c6c(c(c1C=C(C)C6)c23)c54` [HC-8a-PEG1], the maximum absorption wavelength [1] is reported as 621 nm, the molar extinction coefficient [1] is reported as 30,000 M^−1cm^−1 and the singlet oxygen yield [2] is reported as 28%.
In the case of `COc1c(O)c2c(=O)cc(OC)c3c4c(OC)cc(=O)c5c(NCCCC(=O)O)c(NCCCC(=O)O)c6c(c(c1CC(C)=C6)c23)c54` [HC-8a], the maximum absorption wavelength [1] is reported as 620 nm, the molar extinction coefficient [1] is reported as 28,500 M^−1cm^−1 and the singlet oxygen yield [2] is reported as 26%.
In the case of `COc1c(NCCCC(=O)OCCCC[N+](C)(C)C)c2c(=O)cc(OC)c3c4c(OC)cc(=O)c5c(O)c(NCCCC(=O)OCCCC[N+](C)(C)C)c6c(c(c1CC(C)=C6)c23)c54` [HC-8b-C4-N^+], the maximum absorption wavelength [1] is reported as 625 nm, the molar extinction coefficient [1] is reported as 31,000 M^−1cm^−1 and the singlet oxygen yield [2] is reported as 32%.
With `COc1c(NCCCC(=O)NCCCC[N+](C)(C)C)c2c(=O)cc(OC)c3c4c(OC)cc(=O)c5c(O)c(NCCCC(=O)NCCCC[N+](C)(C)C)c6c(c(c1CC(C)=C6)c23)c54` [HC-8b-NH—C4-N^+] the maximum absorption wavelength [1] was 626 nm, the molar extinction coefficient [1] was 30,500 M^−1cm^−1 and the singlet oxygen yield [2] was 32%.
With `COc1c(NCCCC(=O)NCCCCS(=O)(=O)O)c2c(=O)cc(OC)c3c4c(OC)cc(=O)c5c(O)c(NCCCC(=O)NCCCCS(=O)(=O)O)c6c(c(c1CC(C)=C6)c23)c54` [HC-8b-NH—C4-SO3H] the maximum absorption wavelength [1] was 624 nm, the molar extinction coefficient [1] was 31,500 M^−1cm^−1 and the singlet oxygen yield [2] was 33%.
For `COCCOCCOCCOCCOCCOCCOC(=O)CCCNc1c(O)c2c(=O)cc(OC)c3c4c(OC)cc(=O)c5c(NCCCC(=O)OCCOCCOCCOCCOCCOCCOC)c(OC)c6c(c(c1C=C(C)C6)c23)c54` [HC-8b-PEG6], the maximum absorption wavelength [1] was 624 nm, the molar extinction coefficient [1] was 30,000 M^−1cm^−1 and the singlet oxygen yield [2] was 32%.
With `COc1c(NCCCC(=O)O)c2c(=O)cc(OC)c3c4c(OC)cc(=O)c5c(O)c(NCCCC(=O)O)c6c(c(c1CC(C)=C6)c23)c54` [HC-8b] the maximum absorption wavelength [1] was 622 nm, the molar extinction coefficient [1] was 28,000 M^−1cm^−1 and the singlet oxygen yield [2] was 25%.
With `COc1c2c3c4c(c(NCCCC(=O)OCCCCCC[N+](C)(C)C)c(=O)c5c(NCCCC(=O)OCCCCCC[N+](C)(C)C)cc(OC)c(c6c(OC)cc(O)c(c1=O)c63)c54)C=C(C)C2` [HC-8c-C6-N^+] the maximum absorption wavelength [1] was 632 nm, the molar extinction coefficient [1] was 32,500 M^−1cm^−1 and the singlet oxygen yield [2] was 35%.
For `COc1c2c3c4c(c(NCCCC(=O)NCCCCCC[N+](C)(C)C)c(=O)c5c(NCCCC(=O)NCCCCCC[N+](C)(C)C)cc(OC)c(c6c(OC)cc(O)c(c1=O)c63)c54)C=C(C)C2` [HC-8c-NH—C6-N^+], the maximum absorption wavelength [1] was 634 nm, the molar extinction coefficient [1] was 32,000 M^−1cm^−1 and the singlet oxygen yield [2] was 36%.
With `COc1c2c3c4c(c(NCCCC(=O)NCCCCCCS(=O)(=O)O)c(=O)c5c(NCCCC(=O)NCCCCCCS(=O)(=O)O)cc(OC)c(c6c(OC)cc(O)c(c1=O)c63)c54)C=C(C)C2` [HC-8c-NH—C6-SO3H] the maximum absorption wavelength [1] was 632 nm, the molar extinction coefficient [1] was 33,500 M^−1cm^−1 and the singlet oxygen yield [2] was 35%.
With `COCCOCCOCCOCCOCCOCCOCCOCCOCCOCCOCCOCCOC(=O)CCCNc1c2c3c4c(c(OC)c(=O)c5c(O)cc(OC)c(c6c(OC)cc(NCCCC(=O)OCCOCCOCCOCCOCCOCCOCCOCCOCCOCCOCCOCCOC)c(c1=O)c63)c54)CC(C)=C2` [HC-8c-PEG12] the maximum absorption wavelength [1] was 628 nm, the molar extinction coefficient [1] was 32,500 M^−1cm^−1 and the singlet oxygen yield [2] was 38%.
With `COc1c2c3c4c(c(NCCCC(=O)NCCCC[N+](C)(C)C)c(=O)c5c(O)cc(OC)c(c6c(OC)cc(NCCCC(=O)NCCCC[N+](C)(C)C)c(c1=O)c63)c54)C=C(C)C2` [HC-8d-NH—C4-N^+] the maximum absorption wavelength [1] was 624 nm, the molar extinction coefficient [1] was 30,500 M^−1cm^−1 and the singlet oxygen yield [2] was 33%.
With `COc1c2c3c4c(c(NCCCC(=O)NCCCCS(=O)(=O)O)c(=O)c5c(O)cc(OC)c(c6c(OC)cc(NCCCC(=O)NCCCCS(=O)(=O)O)c(c1=O)c63)c54)C=C(C)C2` [HC-8d-NH—C4-SO3H] the maximum absorption wavelength [1] was 626 nm, the molar extinction coefficient [1] was 30,500 M^−1cm^−1 and the singlet oxygen yield [2] was 32%.
For `COCCOCCOCCOCCOCCOCCOC(=O)CCCNc1c2c3c4c(c(OC)c(=O)c5c(NCCCC(=O)OCCOCCOCCOCCOCCOCCOC)cc(OC)c(c6c(OC)cc(O)c(c1=O)c63)c54)CC(C)=C2` [HC-8d-PEG6], the maximum absorption wavelength [1] was 624 nm, the molar extinction coefficient [1] was 31,500 M^−1cm^−1 and the singlet oxygen yield [2] was 32%.
In the case of `COc1c2c3c4c(c(NCCCC(=O)O)c(=O)c5c(O)cc(OC)c(c6c(OC)cc(NCCCC(=O)O)c(c1=O)c63)c54)C=C(C)C2` [HC-8d], the maximum absorption wavelength [1] is reported as 623 nm, the molar extinction coefficient [1] is reported as 27,000 M^−1cm^−1 and the singlet oxygen yield [2] is reported as 26%.
With `COCCOC(=O)CCCCCNc1c(NCCCCCC(=O)OCCOC)c2c(=O)cc(OC)c3c4c(OC)cc(=O)c5c(O)c(OC)c6c(c(c1C=C(C)C6)c23)c54` [HC-9a-PEG1] the maximum absorption wavelength [1] was 621 nm, the molar extinction coefficient [1] was 30,000 M^−1cm^−1 and the singlet oxygen yield [2] was 32%.
For `COc1c(O)c2c(=O)cc(OC)c3c4c(OC)cc(=O)c5c(NCCCCCC(=O)O)c(NCCCCCC(=O)O)c6c(c(c1CC(C)=C6)c23)c54` [HC-9a], the maximum absorption wavelength [1] was 620 nm, the molar extinction coefficient [1] was 26,500 M^−1cm^−1 and the singlet oxygen yield [2] was 26%.
For `COCCOCCOCCOCCOCCOCCOC(=O)CCCCCNc1c(O)c2c(=O)cc(OC)c3c4c(OC)cc(=O)c5c(NCCCCCC(=O)OCCOCCOCCOCCOCCOCCOC)c(OC)c6c(c(c1C=C(C)C6)c23)c54` [HC-9b-PEG6], the maximum absorption wavelength [1] was 622 nm, the molar extinction coefficient [1] was 30,500 M^−1cm^−1 and the singlet oxygen yield [2] was 30%.
For `COc1c(NCCCCCC(=O)O)c2c(=O)cc(OC)c3c4c(OC)cc(=O)c5c(O)c(NCCCCCC(=O)O)c6c(c(c1CC(C)=C6)c23)c54` [HC-9b], the maximum absorption wavelength [1] was 622 nm, the molar extinction coefficient [1] was 27,500 M^−1cm^−1 and the singlet oxygen yield [2] was 24%.
For `COCCOCCOCCOCCOCCOCCOC(=O)CCCCCNc1c2c3c4c(c(OC)c(=O)c5c(O)cc(OC)c(c6c(OC)cc(NCCCCCC(=O)OCCOCCOCCOCCOCCOCCOC)c(c1=O)c63)c54)CC(C)=C2` [HC-9c-PEG6], the maximum absorption wavelength [1] was 628 nm, the molar extinction coefficient [1] was 33,000 M^−1cm^−1 and the singlet oxygen yield [2] was 36%.
In the case of `COc1c2c3c4c(c(NCCCCCC(=O)O)c(=O)c5c(NCCCCCC(=O)O)cc(OC)c(c6c(OC)cc(O)c(c1=O)c63)c54)C=C(C)C2` [HC-9c], the maximum absorption wavelength [1] is reported as 628 nm, the molar extinction coefficient [1] is reported as 27,000 M^−1cm^−1 and the singlet oxygen yield [2] is reported as 29%.
